Data from patent US7728128B2, “Dibenzo[c,h][1,5]naphthyridines and their use as DNA probes” (Institut National de la Sante et de la Recherche Medicate …, priority 2006, dated 2010).

Legend:
[1] = system: plasmid DNA; experiment: absorption of free molecules before and after addition of plasmid DNA; assay type: physicochemical; design: Absorption maxima free dye / Absorption maxima DNA bound dye: unit not given here; details: for Absorption maxima DNA bound dye: after addition of plasmid DNA; for Absorption maxima free dye: free molecule, before addition of plasmid DNA
Experimental: (§1) Plasmid dsDNA was purified using a Qiagen Maxiprep kit and used in the supercoiled form for absorption and fluorescence studies. E. coli total RNA was bought from Ambion, dA/dT and dG/dC homopolymers were purchased from Amersham Biosciences. Calf thymus (CT) high-molecular weight DNA and Hoechst 33258 were obtained from Sigma-Aldrich. Ethidium bromide was purchased from Amresco.
(§2) Spectrometry and fluorimetry were performed using a SpectraMax384 (Molecular Devices) and a Luminescence Spectrometer LS50B (Perkin Elmer). Fluorescence emission of compound I in complex with DNA and RNA was measured in 50 mM Na phosphate buffer, pH 7.2 at room temperature. Before use, total E. coli RNA was heated to 100° C. for 1 min and immediately transferred on ice for 5 min before mixing with compound I solution. All measurements were carried out at room temperature (20-23° C.) in solutions protected from light and incubated for ˜10-15 min after dilution. The units of b/dye and bp/dye are defined as moles of RNA bases or DNA base pairs per mole of dye. Quantum yield was measured using quinine sulphate as standard as described in (Iupac Commission on Photochemistry, EPA Newsletter of November 1986, 21-29) using FLUOROMAX-3 Spex Spectrofluorometer (HORIBA) and UVIKON XL Spectrophotometer (SECOMAM).
(§3) Although compound I also stains mitotic chromosomes (FIG. 1D), theoretically it was possible that it binds specifically to DNA-associated proteins (for example histones) rather than to nucleic acids. To resolve this issue, the absorption and emission spectra of free compound I before and after addition of dsDNA were recorded. […] Molar extinction coefficient (EC) of free compound I at 391 nm was measured at 10,800 cm^−1 M^−1. In the presence of ds plasmid DNA the absorption peaks of compound I at 373 and 391 nm decreased, and a new peak appears with a maximum at 435 nm (FIG. 1E). An overlay of the absorption spectra in complex with dsDNA at different bp per dye ratios gives a single isosbestic point at 398 nm. Free compound I fluoresces around 438 nm (the exact position of the peak depends on the excitation wavelength). […] At the same time, a new peak evolves with a maximum around 484 nm (FIG. 1F). The exact maximum of fluorescence of compound I/DNA complexes varies insignificantly as a function of the dye/bp ratio and/or base pairs composition of the nucleic acids. […] The quantum yield for compound I (excited at 435 nm) at 5 μM in 50 mM Na-phosphate, pH 7.2, was determined to be 2.7% for free dye and 13.8% in admixture with 50 μM CT DNA.
(§4) To get a further insight into how the structural properties of compound I contribute to its binding to DNA, the inventors analysed fourteen structural analogues present in the compound library. Although several of these compounds are fluorescent in vivo, this property went undetected in the initial screen most likely due to the latency period before the appearance of the signal (see below). To evaluate the activity of compound I-like molecules three tests were used: (1) in vivo, the inventors incubated human fibroblasts in the presence of the molecules and scored nuclear fluorescence in the microscope; (2 and 3) in vitro, the inventors looked at the absorption and fluorescence of free molecules before and after addition of plasmid DNA. […] With the exception of compound I and analogues 8 and 12, accurate in vitro measurement of the fluorescence intensities was impossible because the emission peaks for the free molecules were too close to that for the DNA-bound dye. This affected the height of the dye/DNA peaks.

[2] = system: plasmid DNA; experiment: fluorescence of free molecules before and after addition of plasmid DNA; assay type: physicochemical; design: Fluorescence maxima free dye / Fluorescence maxima DNA bound dye: unit not given beside the values; details: for Fluorescence maxima free dye: free molecule, before addition of plasmid DNA; for Fluorescence maxima DNA bound dye: after addition of plasmid DNA
Experimental: as §1, §2, §3, §4

[3] = system: human fibroblasts; experiment: in vivo nuclear fluorescence of human fibroblasts incubated with the molecules, scored in the microscope; assay type: cell-based; design: key: Weak: Staining was defined as “weak”, “moderate” or “strong” based on the nuclear signal/background ratio.; Moderate: Staining was defined as “weak”, “moderate” or “strong” based on the nuclear signal/background ratio.; Strong: Staining was defined as “weak”, “moderate” or “strong” based on the nuclear signal/background ratio; details: 10 μM, 10-60 min (up to 24 hours); Alexa488/FITC filter
Experimental: In this study, three different types of cells were used: Xenopus epithelial cell line XL177 (Miller, L. et al., 1977, In Vitro, 13, 557-563) stably transformed with a YFP-α-tubulin expressing construct (pEYFP-Tub, Clontech), mouse fibroblasts, and primary human skin fibroblasts. XL177 cells were grown at 20° C. in 60% Leibowitz-15 medium, supplemented with antibiotics, 10% fetal calf serum (FCS) and 10 mM HEPES, pH 7.2 with addition of 0.7 mg/ml G418. Cells were plated into glass-bottom 96-well plates (Greiner, Germany) and left to spread for 24 hours before being incubated in the presence of the test compounds from the Curie-CNRS small molecule library (at 25 or 50 μM final concentration) for another 20-24 hours. Mouse and human fibroblasts were grown in DMEM with antibiotics and 10% FCS at 37° C. in the presence of 5% CO2. The cells were observed using a Zeiss Axiovert 200M microscope with a 40× oil immersion objective and a standard Alexa488/FITC filter (Omega, XF100-2; Ex475AF40/Em535AF45/Dichroic505). Subsequent experiments were carried out using smaller concentrations of compound I and incubation times as described in the text and figures legends. For the in vivo tests of compound I-like compounds, the molecules were added to cell culture medium at 10 μM final concentration and incubated with cells 10-60 min (up to 24 hours) prior to scoring.
as §4

| melting point | Absorption maxima DNA bound dye [1] | Absorption maxima free dye [1] | Fluorescence maxima free dye [2] | Fluorescence maxima DNA bound dye [2] | Compound | Images of the in vivo nuclear staining [3] |
| --- | --- | --- | --- | --- | --- | --- |
| 153 °C |  |  |  |  | Cc1nc2c3ccccc3cnc2c2ccccc12 [Compound 1, 6-Methyl-dibenzo[c,h][1,5]naphthyridine] |  |
|  | 365 | 360 |  |  | CCN(CC)CCCNCc1nc2c3ccccc3cnc2c2ccccc12 [Compound 2, N′-Dibenzo[c,h][1,5]naphthyridin-6-ylmethyl-N,N-diethyl-propane-1,3-diamine] |  |
| 100 °C | 375/375 | 375/375 |  |  | OCCNCCNc1nc2c3ccccc3cnc2c2ccccc12 [Compound 3, 2-[2-(Dibenzo[c,h][1,5]naphthyridin-6-ylamino)-ethylamino]-ethanol] |  |
|  | 375 | 370 | 404/ND |  | CN(C)CCNc1nc2c3ccccc3cnc2c2ccccc12 [Compound 4, N′-Dibenzo[c,h][1,5]naphthyridin-6-yl-N,N-dimethyl-ethane-1,3-diamine] |  |
| 160 °C |  |  |  |  | CN(C)CCNCc1nc2c3ccccc3cnc2c2ccccc12 [Compound 5, N′-dibenzo[c,h][1,5]naphthyridin-6-yl-methyl-N,N-dimethyl-ethane-1,2-diamine] |  |
| 45 °C |  |  |  |  | CN(C)CCCNCc1nc2c3ccccc3cnc2c2ccccc12 [Compound 6, N′-dibenzo[c,h][1,5]naphthyridin-6-yl-methyl-N,N-dimethyl-propane-1,3-diamine] |  |
| 156 °C |  | 365/ND |  |  | CC(CO)(CO)NCc1nc2c3ccccc3cnc2c2ccccc12 [Compound 7, N′-dibenzo[c,h][1,5]naphthyridin-6-yl-methylamino-2-methyl-propane-1,3-diol] |  |
| 139 °C | 425 | 385 | 427 | 468 | COc1ccc2c(c1)c(C)nc1c3ccccc3c(NCCCN(C)C)nc21 [Compound 8, N′-(2-methoxy-12-methyl-dibenzo[c,h][1,5]naphthyridin-6-yl)-N,N-dimethyl-propane-1,3-diamine] |  |
| 169 °C | 395 | 375 | 468 | 472 | COc1ccc2c(c1)c(NCCN(C)C)nc1c3ccccc3c(NCCN(C)C)nc21 [Compound 9, N6,N12-bis-(2-dimethylamino-ethyl)-2-methoxy-dibenzo[c,h][1,5]naphthyridin-6,12-diamine] | Weak |
| 155 °C | 402 | 380 | 478 | 485 | COc1ccc2c(c1)c(NCCCN(C)C)nc1c3ccccc3c(NCCCN(C)C)nc21 [Compound 10, N6,N12-bis-(3-dimethylamino-propyl)-2-methoxy-dibenzo[c,h][1,5]naphthyridine-6,12-diamine] | Moderate/ Strong |
| 216 °C | 405 | 390 | 484 | 500 | COc1ccc2c(c1)c(NCCCN(C)C)nc1c3ccc(OC)cc3c(NCCCN(C)C)nc21 [Compound 11, N,N′-bis-(3-dimethylaminopropyl)-2,8-dimethoxy-dibenzo[c,h][1,5]naphthyridin-6,12-diamine] | Moderate/ Strong |
|  | 435 | 390 | 435 | 475 | COc1ccc2c(c1)c(C)nc1c3ccc(OC)cc3c(NCCN(C)C)nc21 [Compound 12, N′-(2,8-dimethoxy-12-methyl-dibenzo[c,h][1,5]naphthyridin-6-yl)-N,N-dimethyl-ethane-1,3-diamine] | Weak |
|  | 394 | 390 | 425 | 407 | COc1ccc2c(cnc3c4ccc(OC)cc4c(NCCN(C)C)nc23)c1 [Compound 13, N′-(2,8-dimethoxy-dibenzo[c,h][1,5]naphthyridin-6-yl)-N,N-dimethyl-ethane-1,3-diamine] | Moderate^§ |
| 209 °C | 400/400 | 400/400 | 468 | 482 | COc1ccc2c(c1)c(NCCN(C)C)nc1c3ccc(OC)cc3c(NCCN(C)C)nc21 [Compound 14, N,N′-bis-(3-dimethylamino-ethyl)-2,8-dimethoxy-dibenzo[c,h][1,5]naphthyridin-6,12-diamine] | Weak |
